Reference: ChEMBL document CHEMBL1201862, “PubChem BioAssay data set” (2004)
Activity calls are given as the source filed them.

Experiments:
[1] = system: BJ; assay: cytotoxicity toward BJ-TERT fibroblasts, dose response, cell-based, RAS-independent, luminescence (AID 1933); type: functional; conditions: Homo sapiens
[2] = system: BJ; assay: cells; type: functional, cell-based; conditions: Homo sapiens
[3] = system: BJ; assay: cytotoxicity toward BJ-TERT-LT-ST fibroblasts, dose response, cell-based, RAS-independent, luminescence (AID 1935); type: functional; conditions: Homo sapiens;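 further: BJ fibroblasts immortalized with TERT plus LT and ST oncogenes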
[4] = cytotoxicity toward DRD oncogenic fibroblasts, dose response, cell-based, non-viral oncogenic, luminescence (AID 1934); type: functional; conditions: Homo sapiens
[5] = target: Scavenger receptor class B member 1 (Mus musculus, UniProt Q61009); assay: inhibitors of SR-BI mediated HDL lipid uptake, dose response, ldlA[mSR-BI] cells, fluorescence, cherry pick (AID 493194); type: functional, cell-based;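 further: cellular uptake of fluorescent DiI-labeled HDL measured as cell fluorescence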
[6] = target: Aspartyl aminopeptidase (Plasmodium falciparum 3D7, UniProt Q8I2J3)
[7] = target: Procathepsin L (Homo sapiens, UniProt P07711)
[8] = Luminescence Cell-Based Dose Retest to Confirm Inhibitors of Cancer Stem Cells. [Related pubchem assays (depositor defined):AID2717, AID2721]; type: functional; conditions: Homo sapiens
[9] = target: Alkaline phosphatase, placental type (Homo sapiens, UniProt P05187); assay: PLAP enzyme inhibitors, confirmation, biochemical, luminescence (AID 1512); type: functional
[10] = inhibitors of intracellular T. cruzi replication, confirmation, NIH3T3 host cells, beta-gal luminescence (AID 2044); type: functional, cell-based;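 further: intracellular parasites grown in NIH/3T3 mouse fibroblasts as host cells; luminescent beta-galactosidase reporter signal from transgenic T. cruzi replicating inside host cells; inhibitors lower the luminescence signal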
[11] = microbe, parasite or virus in culture; type: functional; conditions: Mycobacterium tuberculosis
[12] = cytotoxicity toward NIH3T3 fibroblasts, dose response, counter-screen, cell-based, ATP luminescence, mouse fibroblasts (AID 2010); type: functional;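 further: cells exposed to compound for about 90 hours before reading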
[13] = target: T1, Sphingosine 1-phosphate receptor 4 (Homo sapiens, UniProt O95977); assay: Late stage fluorescence dose response cell-based screening assay for antagonists of the Sphingosine 1-Phosphate Receptor 4 (S1P4). [Related pubchem assays: 1524 (Confirmation screen (S1P4 antagonists).), 1510 (Primary screen (S1P4 antagonists).), 1853 (Summary AID (S1P4 antagonists).), 1692 (Dose response screen (S1P4 antagonists).)]; type: functional
T1 sequence (O95977 whole entry): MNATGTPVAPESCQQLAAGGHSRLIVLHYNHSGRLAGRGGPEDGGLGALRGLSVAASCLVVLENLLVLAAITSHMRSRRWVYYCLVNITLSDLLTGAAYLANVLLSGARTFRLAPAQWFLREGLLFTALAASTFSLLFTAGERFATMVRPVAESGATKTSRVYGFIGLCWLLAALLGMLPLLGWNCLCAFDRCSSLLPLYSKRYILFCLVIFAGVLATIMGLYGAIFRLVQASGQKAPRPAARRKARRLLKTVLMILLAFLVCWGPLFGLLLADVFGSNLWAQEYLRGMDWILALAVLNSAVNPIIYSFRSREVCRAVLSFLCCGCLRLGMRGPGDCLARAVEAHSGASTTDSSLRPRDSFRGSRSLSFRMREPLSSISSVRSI

[14] = target: T1, Sphingosine 1-phosphate receptor 4; assay: Fluorescence dose response cell-based high throughput screening assay for antagonists of the Sphingosine 1-Phosphate Receptor 4 (S1P4). [Related pubchem assays: 1524 (Confirmation in triplicates.), 1510 (Primary screen.)]; type: functional
[15] = target: Sphingosine 1-phosphate receptor 1 (Homo sapiens, UniProt P21453); type: functional;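 further: Tango beta-arrestin reporter U2OS cells stimulated with S1P near its EC80; inhibitor potency meaning antagonism of receptor activation by the natural agonist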
[16] = target: Neurotensin receptor type 1 (Homo sapiens, UniProt P30989); type: functional;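 further: Image-based confirmatory dose-response assay measuring agonist activity at NTR1; NTR1-expressing U2OS osteosarcoma cells imaged for beta-arrestin GFP spot formation; agonist potency where compounds increase beta-arrestin recruitment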
[17] = system: INS1; assay: beta cell apoptosis inhibitors, cytokine rescue, dose response, luminescence, retest (AID 449756); type: functional, cell-based; conditions: Rattus norvegicus;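 further: cell death triggered by IL-1 beta plus TNF-alpha plus IFN-gamma mixture; protective hits raise ATP signal compared with cytokine alone wells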
[18] = Shn3 3'UTR reporter inhibitors, dose response, cell-based, Clone20 osteoblasts, firefly luciferase, cherry-picked (AID 624132); type: functional;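 further: firefly luciferase luminescence from reporter carrying the Shn3 3'UTR in osteoblasts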
[19] = HepG2 cell cytotoxicity, dose response, cytotoxicity control for Shn3 inhibitor project, CellTiter-Glo, cherry-picked (AID 624134); type: functional, cell-based
[20] = control 3'UTR Renilla luciferase suppression, dose response, counter-screen for Shn3 inhibitor project, cell-based, Clone20-Shn3RL, cherry-picked (AID 624133); type: functional
[21] = target: T1, Sphingosine 1-phosphate receptor 4; assay: S1P4 receptor agonists, human, late-stage follow-up, cell-based, fluorescence, synthesized compounds (AID 463107); type: functional
[22] = target: Coagulation factor XII (Homo sapiens, UniProt P00748); assay: FXIIa inhibitor potency, concentration-response, biochemical (AID 716); type: functional
[23] = system: T-cell; assay: inhibitors of CD8+ T cell–vesicle binding, dose response, mouse 2C CD8+ T cells, flow cytometry (AID 485284); type: functional
[24] = target: Lysosomal acid glucosylceramidase (Homo sapiens, UniProt P04062); assay: Dose response cell-based high throughput screening assay to identify enhancers of beta-glucosidase activity. [Related pubchem assays: 784 ]; type: functional
[25] = target: Eukaryotic translation initiation factor 4H (Homo sapiens, UniProt Q15056); assay: human eIF4H binding inhibitors, primary screen, translation initiation inhibitor project, biochemical, uHTS, fluorescence polarization (AID 2012)
[26] = target: Polyadenylate-binding protein 1 (Homo sapiens, UniProt P11940); assay: PABP poly(A) RNA binding inhibitors, primary screen, biochemical, fluorescence polarization, uHTS (AID 2014)
[27] = target: Tumor necrosis factor (Homo sapiens, UniProt P01375); assay: TNFa-triggered NF-kB activation inhibitors, SAR follow-up, cell-based, revised (AID 2337); type: functional
[28] = target: T2, Nucleotide-binding oligomerization domain-containing protein 1 (Homo sapiens, UniProt Q9Y239); assay: NOD1 signaling inhibitors, SAR follow-up, revised (AID 2333); type: functional
T2 sequence (Q9Y239 whole entry): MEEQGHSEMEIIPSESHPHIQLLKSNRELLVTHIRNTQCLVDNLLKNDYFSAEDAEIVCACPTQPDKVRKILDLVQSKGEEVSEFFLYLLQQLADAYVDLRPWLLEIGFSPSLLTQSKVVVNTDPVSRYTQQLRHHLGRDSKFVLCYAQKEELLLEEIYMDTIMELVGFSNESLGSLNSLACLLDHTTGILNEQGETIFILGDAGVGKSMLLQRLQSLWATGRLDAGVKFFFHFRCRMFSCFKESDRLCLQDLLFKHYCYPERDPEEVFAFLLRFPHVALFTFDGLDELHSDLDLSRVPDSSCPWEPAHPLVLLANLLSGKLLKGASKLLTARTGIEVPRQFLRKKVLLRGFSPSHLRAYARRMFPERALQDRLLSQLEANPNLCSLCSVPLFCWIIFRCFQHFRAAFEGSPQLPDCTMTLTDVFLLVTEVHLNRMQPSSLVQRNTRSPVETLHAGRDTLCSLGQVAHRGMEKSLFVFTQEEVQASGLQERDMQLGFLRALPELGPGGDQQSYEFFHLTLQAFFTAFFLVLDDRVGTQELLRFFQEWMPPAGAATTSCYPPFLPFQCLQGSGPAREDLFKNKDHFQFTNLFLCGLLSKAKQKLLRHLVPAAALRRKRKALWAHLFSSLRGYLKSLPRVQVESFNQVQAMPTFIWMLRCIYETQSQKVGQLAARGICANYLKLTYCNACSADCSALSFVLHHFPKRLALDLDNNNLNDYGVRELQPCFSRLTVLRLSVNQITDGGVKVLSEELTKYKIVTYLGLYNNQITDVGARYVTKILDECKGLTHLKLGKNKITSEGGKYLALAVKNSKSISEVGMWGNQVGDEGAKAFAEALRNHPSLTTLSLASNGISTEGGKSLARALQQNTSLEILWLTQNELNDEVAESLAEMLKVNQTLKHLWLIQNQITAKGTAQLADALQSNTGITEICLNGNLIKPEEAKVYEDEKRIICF

[29] = target: Nucleotide-binding oligomerization domain-containing protein 2 (Homo sapiens, UniProt Q9HC29); assay: PubChem AID 2334; type: functional
[30] = system: HEK293; assay: cells; conditions: Homo sapiens;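 further: cells exposed to compound for 14 hours overnight before viability readout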

Chain of Sphingosine 1-phosphate receptor 1 (P21453 whole entry): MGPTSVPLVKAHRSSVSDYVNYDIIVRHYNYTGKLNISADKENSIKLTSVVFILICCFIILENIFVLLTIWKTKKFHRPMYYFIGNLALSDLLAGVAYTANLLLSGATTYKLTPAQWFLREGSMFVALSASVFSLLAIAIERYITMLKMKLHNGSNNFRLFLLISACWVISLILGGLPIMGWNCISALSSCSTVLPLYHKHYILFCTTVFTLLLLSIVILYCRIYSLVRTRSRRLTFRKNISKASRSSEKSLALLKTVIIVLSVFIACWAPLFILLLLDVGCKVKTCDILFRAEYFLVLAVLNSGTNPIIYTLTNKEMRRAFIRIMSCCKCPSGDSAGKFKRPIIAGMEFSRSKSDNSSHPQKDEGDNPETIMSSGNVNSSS
Chain of Tumor necrosis factor (P01375 whole entry, the tested form may be a part): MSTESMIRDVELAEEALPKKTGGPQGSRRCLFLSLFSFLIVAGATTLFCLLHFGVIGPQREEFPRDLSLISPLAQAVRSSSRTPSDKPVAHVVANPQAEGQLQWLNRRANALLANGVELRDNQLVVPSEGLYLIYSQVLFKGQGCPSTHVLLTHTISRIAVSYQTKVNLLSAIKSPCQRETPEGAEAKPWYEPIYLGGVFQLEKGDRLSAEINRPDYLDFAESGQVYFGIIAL
Chain of Polyadenylate-binding protein 1 (P11940 whole entry): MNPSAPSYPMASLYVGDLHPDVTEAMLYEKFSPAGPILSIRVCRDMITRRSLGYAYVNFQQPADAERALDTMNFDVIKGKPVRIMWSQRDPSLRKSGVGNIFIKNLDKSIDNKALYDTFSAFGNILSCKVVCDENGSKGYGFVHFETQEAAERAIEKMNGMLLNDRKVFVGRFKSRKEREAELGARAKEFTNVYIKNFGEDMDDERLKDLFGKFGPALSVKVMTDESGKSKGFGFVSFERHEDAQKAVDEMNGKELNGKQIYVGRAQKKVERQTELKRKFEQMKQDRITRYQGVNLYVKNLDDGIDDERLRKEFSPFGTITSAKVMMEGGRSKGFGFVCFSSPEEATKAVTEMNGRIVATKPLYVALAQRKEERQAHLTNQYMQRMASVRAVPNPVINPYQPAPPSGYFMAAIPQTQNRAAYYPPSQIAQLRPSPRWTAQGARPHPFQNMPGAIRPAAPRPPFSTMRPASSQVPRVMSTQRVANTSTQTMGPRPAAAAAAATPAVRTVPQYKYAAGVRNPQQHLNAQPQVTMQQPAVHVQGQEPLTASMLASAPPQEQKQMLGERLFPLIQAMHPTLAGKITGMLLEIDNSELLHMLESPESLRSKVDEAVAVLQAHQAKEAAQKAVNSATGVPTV
Chain of Lysosomal acid glucosylceramidase (P04062 whole entry): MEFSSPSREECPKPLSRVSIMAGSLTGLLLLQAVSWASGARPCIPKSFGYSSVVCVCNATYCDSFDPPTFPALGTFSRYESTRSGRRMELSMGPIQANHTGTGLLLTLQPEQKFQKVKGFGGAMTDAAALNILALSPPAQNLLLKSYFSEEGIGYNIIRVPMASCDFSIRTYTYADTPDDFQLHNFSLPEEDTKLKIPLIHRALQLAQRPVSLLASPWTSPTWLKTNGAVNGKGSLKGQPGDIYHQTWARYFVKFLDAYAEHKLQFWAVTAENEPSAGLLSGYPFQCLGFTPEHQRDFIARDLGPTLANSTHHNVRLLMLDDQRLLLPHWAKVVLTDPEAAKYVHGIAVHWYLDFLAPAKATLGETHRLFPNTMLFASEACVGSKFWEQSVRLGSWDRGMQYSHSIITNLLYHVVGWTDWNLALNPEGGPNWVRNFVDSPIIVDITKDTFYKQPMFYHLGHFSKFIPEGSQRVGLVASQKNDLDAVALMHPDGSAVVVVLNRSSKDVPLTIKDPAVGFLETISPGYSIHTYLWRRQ
Chain of Procathepsin L (P07711 whole entry): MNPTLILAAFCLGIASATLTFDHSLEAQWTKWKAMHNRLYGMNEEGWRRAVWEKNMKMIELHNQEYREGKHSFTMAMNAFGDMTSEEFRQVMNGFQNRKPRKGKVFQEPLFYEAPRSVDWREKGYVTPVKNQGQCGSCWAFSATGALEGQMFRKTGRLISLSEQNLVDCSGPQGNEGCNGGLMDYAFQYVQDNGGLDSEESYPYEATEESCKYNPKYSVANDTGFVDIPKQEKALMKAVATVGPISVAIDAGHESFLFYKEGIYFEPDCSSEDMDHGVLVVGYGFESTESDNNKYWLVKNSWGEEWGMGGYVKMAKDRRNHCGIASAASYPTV
Chain of Alkaline phosphatase, placental type (P05187 whole entry): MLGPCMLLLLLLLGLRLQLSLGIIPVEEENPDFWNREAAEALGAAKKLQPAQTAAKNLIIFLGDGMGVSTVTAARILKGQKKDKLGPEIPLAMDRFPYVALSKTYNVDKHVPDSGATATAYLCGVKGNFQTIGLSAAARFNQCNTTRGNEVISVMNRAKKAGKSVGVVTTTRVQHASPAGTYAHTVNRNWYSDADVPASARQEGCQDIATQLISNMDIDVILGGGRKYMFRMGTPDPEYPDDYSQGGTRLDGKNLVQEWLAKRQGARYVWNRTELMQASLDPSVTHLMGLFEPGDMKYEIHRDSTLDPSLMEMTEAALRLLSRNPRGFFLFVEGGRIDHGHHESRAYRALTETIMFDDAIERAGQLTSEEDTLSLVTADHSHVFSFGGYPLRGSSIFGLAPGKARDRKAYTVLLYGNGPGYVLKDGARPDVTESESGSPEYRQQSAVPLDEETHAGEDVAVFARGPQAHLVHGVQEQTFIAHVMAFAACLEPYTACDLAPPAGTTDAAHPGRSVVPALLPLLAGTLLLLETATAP
Chain of Coagulation factor XII (P00748 20-372 limits assumed): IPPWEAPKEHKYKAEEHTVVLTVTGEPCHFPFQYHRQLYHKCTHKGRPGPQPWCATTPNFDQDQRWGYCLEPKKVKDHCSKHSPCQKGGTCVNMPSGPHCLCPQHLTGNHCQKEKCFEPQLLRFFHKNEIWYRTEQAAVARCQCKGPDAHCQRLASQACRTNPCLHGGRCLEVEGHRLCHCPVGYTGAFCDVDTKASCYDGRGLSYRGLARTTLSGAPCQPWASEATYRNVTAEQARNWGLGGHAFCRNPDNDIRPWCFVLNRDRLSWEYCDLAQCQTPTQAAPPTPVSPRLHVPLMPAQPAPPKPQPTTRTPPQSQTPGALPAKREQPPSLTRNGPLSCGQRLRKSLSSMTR
Chain of Coagulation factor XII (P00748 373-615 limits assumed): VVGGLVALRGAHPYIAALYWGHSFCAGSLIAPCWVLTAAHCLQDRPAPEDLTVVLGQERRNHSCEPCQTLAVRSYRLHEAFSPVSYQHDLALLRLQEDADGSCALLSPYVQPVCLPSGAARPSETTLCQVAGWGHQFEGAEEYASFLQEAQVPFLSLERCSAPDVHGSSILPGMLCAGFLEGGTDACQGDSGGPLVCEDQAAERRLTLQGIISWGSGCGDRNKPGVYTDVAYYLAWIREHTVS
Chain of Aspartyl aminopeptidase (Q8I2J3 whole entry): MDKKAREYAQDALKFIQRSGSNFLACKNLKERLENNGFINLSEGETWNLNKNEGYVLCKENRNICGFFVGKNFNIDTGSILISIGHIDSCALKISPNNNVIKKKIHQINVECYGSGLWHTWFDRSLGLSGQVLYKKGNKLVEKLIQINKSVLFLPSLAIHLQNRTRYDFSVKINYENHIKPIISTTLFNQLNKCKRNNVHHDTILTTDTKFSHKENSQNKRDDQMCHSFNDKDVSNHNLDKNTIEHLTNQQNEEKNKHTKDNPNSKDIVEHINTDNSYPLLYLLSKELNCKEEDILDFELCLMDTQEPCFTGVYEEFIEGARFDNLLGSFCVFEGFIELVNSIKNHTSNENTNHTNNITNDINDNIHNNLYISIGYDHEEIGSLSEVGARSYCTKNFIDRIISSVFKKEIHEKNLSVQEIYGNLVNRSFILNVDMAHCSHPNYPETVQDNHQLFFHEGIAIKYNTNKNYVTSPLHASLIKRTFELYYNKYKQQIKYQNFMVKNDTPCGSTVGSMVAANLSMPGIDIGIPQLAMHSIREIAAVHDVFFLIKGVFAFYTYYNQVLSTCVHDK
Chain of Neurotensin receptor type 1 (P30989 whole entry): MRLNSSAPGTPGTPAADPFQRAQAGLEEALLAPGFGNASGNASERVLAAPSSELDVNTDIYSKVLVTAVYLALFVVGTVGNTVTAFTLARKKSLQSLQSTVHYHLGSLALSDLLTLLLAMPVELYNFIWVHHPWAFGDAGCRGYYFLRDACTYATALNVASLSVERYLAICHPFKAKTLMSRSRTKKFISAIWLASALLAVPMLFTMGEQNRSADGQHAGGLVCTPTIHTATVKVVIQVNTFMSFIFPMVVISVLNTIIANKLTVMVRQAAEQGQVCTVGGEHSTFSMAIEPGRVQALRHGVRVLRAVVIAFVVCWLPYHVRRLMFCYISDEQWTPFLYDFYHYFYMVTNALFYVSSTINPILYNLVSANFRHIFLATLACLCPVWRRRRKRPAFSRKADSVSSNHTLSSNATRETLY

With `Cc1c(C(=O)OCCOC(C)C)[nH]c2c1C(=O)CC(c1ccco1)C2` (centres undefined) the EC50 [1] was 0.37 µM (active), the EC50 [2] was 1.71 µM (inconclusive) and the EC50 [3] was 0.73 µM (inconclusive). For the same compound, the EC50 [4] was 1.28 µM (inconclusive) and the AC50 [5] was 34 µM (active).

For `COCCNC(=O)NC1(C(F)(F)F)Oc2ccc(Cl)cc2O1` (centres undefined), the IC50 [6] was 2.12 µM (active), the IC50 [7] was > 59.6 µM (not active) and the AC50 [8] was 6.47 µM (active). For the same compound, the IC50 [9] was 6.75 µM (active).

For `O=C(/C(=C/c1ccc(Cl)cc1)c1nc2ccccc2[nH]1)c1cccs1`, the EC50 [1] was 4.27 µM (inconclusive), the EC50 [2] was 9.34 µM (active) and the EC50 [10] was 1.03 µM (active). The CC50 [11] was 2.9 µM (active), the EC50 [12] was 5.47 µM (active) and the IC50 [13] was 0.737 µM (active). For the same compound, the IC50 [14] was 0.37 µM (active), the EC50 [3] was 3.71 µM (inconclusive) and the EC50 [4] was 5.28 µM (inconclusive). For the same compound, the IC50 [15] was 6.77 µM (active), the EC50 [16] was 12.6 µM (active) and the AC50 [17] was 3.71 µM (active). The AC50 [18] was 2.66 µM (active), the AC50 [19] was 8.26 µM (active) and the AC50 [20] was 8.35 µM (active).

With `O=[N+]([O-])c1ncccc1OCCOc1ccc(Cl)cc1Cl` the EC50 [21] was 29.8 µM (inactive).

With `CCOC(=O)c1[nH]c2ccc(OC)cc2c1NC(=O)N1CCOCC1` the IC50 [22] was > 50 µM (inactive).

In the case of `CCOC(=O)/C=C1\SCC(=O)N1CC(=O)NC1CCCCC1`, the EC50 [23] is reported as 7.17 µM (active).

With `CCOc1ccc(S(=O)(=O)NCC2CCCO2)c2cccnc12` (centres undefined) the EC50 [24] was > 10 µM (not active).

In the case of `O=C(COC(=O)CCC(=O)c1ccc(Cl)cc1)NCc1ccco1`, the IC50 [25] is reported as 11.1 µM (active) and the IC50 [26] is reported as 26.7 µM (active).

For `CCC1CCc2c(sc(NC(=O)c3ccccc3Br)c2C(=O)OC)C1` (centres undefined), the IC50 [27] was > 20 µM (inactive), the IC50 [28] was > 20 µM (inactive) and the IC50 [29] was > 20 µM (inactive). The IC50 [30] was > 20 µM (inactive).
